Earlier results on one compound are cited in US12369587B2, “Aqueous composition of epyrifenacil, flumioxazin and pyroxasulfone” (Valent U.S.A. LLC, priority 2020, dated 2025).

Structures are written as SMILES.

For the compound `C#CCN1C(=O)COc2cc(F)c(N3C(=O)C4=C(CCCC4)C3=O)cc21` [flumioxazin, 2-(7-fluoro-3-oxo-4-prop-2-ynyl-1,4-benzoxazin-6-yl)-4,5,6,7-tetrahydroisoindole-1,3-dione], the water solubility is recorded as 1.79 ppm.
